Measured values from patent US4003887A, “Novel penicillins and their preparation” (Sumitomo Chemical Company, Limited, priority 1972, dated 1977).
≈ marks a conversion by molar mass, not a printed value.

Columns and labels:
[1] = test system: gram-positive and gram-negative bacteria; conditions: literature, words; cited from earlier work
[2] = test system: Klebsiella pneumoniae PC1602; assay: Minimal inhibitory concentration, agar dilution method; type: cell-based
Source text: (§1) When determined according to the agar dilution method, the penicillins (I) afford the minimal inhibitory concentrations against test microorganisms as shown in Table 2.

[3] = test system: Pseudomonas; conditions: literature, words; cited from earlier work
[4] = test system: Escherichia coli NIHJ; assay: Minimal inhibitory concentration, agar dilution method; type: cell-based
Source text: as §1

[5] = test system: Staphylococcus aureus 209P; assay: as above; type: cell-based
Source text: as §1

[6] = test system: Pseudomonas aeruginosa 104; assay: as above; type: cell-based
Source text: as §1

[7] = test system: Proteus miravilis GN2425; assay: as above; type: cell-based

| MIC [4] [µg/mL] | MIC [5] [µg/mL] | MIC [6] [µg/mL] | MIC [7] [µg/mL] | SMILES | inhibition of growth of gram-positive and gram-negative bacteria [1] | MIC [2] [µg/mL] | antimicrobial activity against Pseudomonas [3] |
| --- | --- | --- | --- | --- | --- | --- | --- |
| – | – | – | – | CC1(C)S[C@@H]2C(NC(=O)C(N)c3ccc(O)cc3)C(=O)N2[C@H]1C(=O)O (stereo partly drawn) [Amoxycillin, 6-(α-amino-p-hydroxyphenylacetamido)penicillanic acid] | inhibit the growth of various gram-positive and gram-negative bacteria | > 200 | do not exert any appreciable antimicrobial activity against Pseudomonas |
| – | – | – | – | CC1(C)S[C@@H]2C(NC(=O)C(N)c3ccccc3)C(=O)N2[C@H]1C(=O)O (stereo partly drawn) [Ampicillin, 6-(α-amino-phenylacetamido)penicillanic acid] | inhibit the growth of various gram-positive and gram-negative bacteria | – | do not exert any appreciable antimicrobial activity against Pseudomonas |
| – | – | – | – | CC1(C)S[C@@H]2[C@H](NC(=O)C3(N)CCCCC3)C(=O)N2[C@H]1C(=O)O [Cyclacillin, 6-(1-amino-cyclohexane)carboxamidopenicillanic acid] | inhibit the growth of various gram-positive and gram-negative bacteria | – | do not exert any appreciable antimicrobial activity against Pseudomonas |
| – | – | – | – | CC1(C)S[C@@H]2[C@H](NC(=O)[C@H](N)C3=CCC=CC3)C(=O)N2[C@H]1C(=O)O [Epicillin, 6-[α-amino-2-(1,4-hexadienylacetamido)]penicillanic acid] | inhibit the growth of various gram-positive and gram-negative bacteria | – | do not exert any appreciable antimicrobial activity against Pseudomonas |
| 12.5 (≈ 18.2 µM) | 0.39 (≈ 0.569 µM) | 12.5 (≈ 18.2 µM) | 12.5 (≈ 18.2 µM) | CC1(C)S[C@@H]2[C@H](NC(=O)[C@H](NC(=O)c3cnc4ccc(NC(=O)OCc5ccccc5)cc4c3O)c3ccc(O)cc3)C(=O)N2[C@H]1C(=O)O [Example 21] | – | 3.13 (≈ 4.56 µM) | – |
